Experimental data: PubChem BioAssay AID248 (DTP/NCI, 2004)
Where “and” joins values, the source holds several entries; their conditions need not be identical. Identical values can stand only once. Inconclusive results and toxic doses are left out. Cut-off read from the data, not from the text of the source: active = T/C of 150% or more; inactive = T/C below 125%.

System: L1210 leukemia ip in BDF1 mice, survival T/C
Test: NCI In Vivo Anticancer Drug Screen. Data for tumor model L1210 Leukemia (intraperitoneal) in B6D2F1 (BDF1) mice
Conditions: endpoint: mean survival time, higher = longer survival
Summary of the method: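 Transplanted-tumor mice were given test agent; controls received vehicle only. Survival readings from the two groups were divided (treated over control).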

[1] = dose: 100.0 mg/kg/injection, schedule: Q01DX001 (ip), vehicle: carboxymethylcellulose (CMC)
[2] = dose: 100.0 mg/kg/injection, schedule: Q01DX009 (ip), vehicle: carboxymethylcellulose (CMC)
[3] = dose: 100.0 mg/kg/injection, schedule: Q04DX002 (ip), vehicle: carboxymethylcellulose (CMC)
[4] = dose: 100.0 mg/kg/injection, schedule: Q04DX003 (ip), vehicle: carboxymethylcellulose (CMC)
[5] = dose: 200.0 mg/kg/injection, schedule: Q01DX001 (ip), vehicle: carboxymethylcellulose (CMC)
[6] = dose: 200.0 mg/kg/injection, schedule: Q01DX009 (ip), vehicle: carboxymethylcellulose (CMC)
[7] = dose: 200.0 mg/kg/injection, schedule: Q04DX002 (ip), vehicle: carboxymethylcellulose (CMC)
[8] = dose: 200.0 mg/kg/injection, schedule: Q04DX003 (ip), vehicle: carboxymethylcellulose (CMC)
[9] = dose: 400.0 mg/kg/injection, schedule: Q01DX001 (ip), vehicle: carboxymethylcellulose (CMC)
[10] = dose: 50.0 mg/kg/injection, schedule: Q01DX009 (ip), vehicle: Klucel (hydroxypropylcellulose) (HPC)
[11] = dose: 100.0 mg/kg/injection, schedule: Q01DX009 (ip), vehicle: Klucel (hydroxypropylcellulose) (HPC)
[12] = dose: 100.0 mg/kg/injection, schedule: Q04DX003 (ip), vehicle: other
[13] = dose: 200.0 mg/kg/injection, schedule: Q04DX003 (ip), vehicle: other
[14] = dose: 400.0 mg/kg/injection, schedule: Q04DX003 (ip), vehicle: other
[15] = dose: 50.0 mg/kg/injection, schedule: Q01DX001 (ip), vehicle: carboxymethylcellulose (CMC)
[16] = dose: 400.0 mg/kg/injection, schedule: Q01DX009 (ip), vehicle: Klucel (hydroxypropylcellulose) (HPC)
[17] = dose: 100.0 mg/kg/injection, schedule: Q04DX002 (ip), vehicle: Klucel (hydroxypropylcellulose) (HPC)
[18] = dose: 200.0 mg/kg/injection, schedule: Q04DX002 (ip), vehicle: Klucel (hydroxypropylcellulose) (HPC)
[19] = dose: 400.0 mg/kg/injection, schedule: Q04DX002 (ip), vehicle: Klucel (hydroxypropylcellulose) (HPC)
[20] = dose: 100.0 mg/kg/injection, schedule: Q01DX001 (ip), vehicle: saline
[21] = dose: 200.0 mg/kg/injection, schedule: Q01DX001 (ip), vehicle: saline

Measured: T/C

CCCCCCC(=O)N(C(C)C)C(C)C
inactive: [1] 100 % of control | [2] 103 % of control and 104 % of control | [3] 98 % of control and 103 % of control | [4] 104 % of control | [5] 98 % of control | [6] 97 % of control and 100 % of control | [7] 93 % of control and 98 % of control | [8] 102 % of control | [9] 88 % of control | dose: 400.0 mg/kg/injection, schedule: Q01DX009 (ip), vehicle: carboxymethylcellulose (CMC) 93 % of control | dose: 400.0 mg/kg/injection, schedule: Q04DX002 (ip), vehicle: carboxymethylcellulose (CMC) 92 % of control

CN(C)C(=S)SSC(=S)N(C)C
inactive: [10] 92 % of control | [11] 99 % of control | [12] 95 % of control | [13] 103 % of control | [14] 96 % of control

CCOC(CN1CCOCC1)c1ccccc1 (stereo unspecified)
inactive: [15] 100 % of control | dose: 50.0 mg/kg/injection, schedule: Q01DX009 (ip), vehicle: carboxymethylcellulose (CMC) 93 % of control and 92 % of control | dose: 50.0 mg/kg/injection, schedule: Q04DX003 (ip), vehicle: carboxymethylcellulose (CMC) 102 % of control | [1] 99 % of control | [2] 109 % of control and 91 % of control | [3] 103 % of control and 105 % of control | [4] 107 % of control | [5] 100 % of control | [6] 106 % of control and 88 % of control | [7] 106 % of control and 113 % of control | [8] 104 % of control

COc1ccc(C(C)(C)CC(=O)O)cc1
inactive: dose: 50.0 mg/kg/injection, schedule: Q01DX009 (ip), vehicle: saline with Tween-80 97 % of control | dose: 100.0 mg/kg/injection, schedule: Q01DX009 (ip), vehicle: saline with Tween-80 100 % of control | dose: 200.0 mg/kg/injection, schedule: Q01DX009 (ip), vehicle: saline with Tween-80 90 % of control

O=C(Nc1cc2c3ccccc3ccc2c2ccccc12)C(F)(F)F
inactive: [1] 91 % of control | [5] 92 % of control | [9] 97 % of control

O=c1c2ccccc2nc(-c2ccccc2)n1/N=C/c1ccco1
inactive: [11] 93 % of control | dose: 200.0 mg/kg/injection, schedule: Q01DX009 (ip), vehicle: Klucel (hydroxypropylcellulose) (HPC) 94 % of control | [16] 96 % of control

O=C(Nc1cccc(F)c1)Sc1ccc(Cl)cc1
inactive: dose: 25.0 mg/kg/injection, schedule: Q01DX009 (ip), vehicle: Klucel (hydroxypropylcellulose) (HPC) 98 % of control | [10] 108 % of control | [11] 105 % of control and 106 % of control and 112 % of control | [17] 95 % of control | [18] 98 % of control | [16] 86 % of control | [19] 109 % of control

C=CCC1(Cc2ccsc2)C(=O)NC(=O)NC1=O
inactive: [1] 90 % of control | [5] 92 % of control | [9] 100 % of control

Cc1cnc2ccccc2c1
inactive: [20] 100 % of control | [21] 100 % of control

CCCCS(=O)(=O)N1CC(C)OC(C)C1 (stereo unspecified)
inactive: [17] 97 % of control | [18] 108 % of control | [19] 97 % of control

COc1cc2c(cc1OC)-c1cc3cc(OC)c(OC)cc3c(CCC(=O)O)[n+]1CC2 (tested in a mixture with another compound)
inactive: dose: 100.0 mg/kg/injection, schedule: Q04DX002 (ip), vehicle: saline 117 % of control | dose: 200.0 mg/kg/injection, schedule: Q04DX002 (ip), vehicle: saline 103 % of control | dose: 400.0 mg/kg/injection, schedule: Q04DX002 (ip), vehicle: saline 109 % of control

CC(=O)Nc1c(Cl)cc(Cl)cc1Cl
inactive: dose: 100.0 mg/kg/injection, schedule: Q01DX001 (ip), vehicle: saline with Tween-80 109 % of control | dose: 200.0 mg/kg/injection, schedule: Q01DX001 (ip), vehicle: saline with Tween-80 93 % of control | dose: 400.0 mg/kg/injection, schedule: Q01DX001 (ip), vehicle: saline with Tween-80 95 % of control

CCCCCC(/C=N\Nc1nnc(N/N=C\C(=C\c2ccccc2)CCCCC)c2ccccc12)=C/c1ccccc1
inactive: [15] 102 % of control | dose: 88.0 mg/kg/injection, schedule: Q01DX001 (ip), vehicle: carboxymethylcellulose (CMC) 98 % of control | [1] 108 % of control | dose: 133.0 mg/kg/injection, schedule: Q01DX001 (ip), vehicle: carboxymethylcellulose (CMC) 101 % of control | [5] 104 % of control and 114 % of control | dose: 300.0 mg/kg/injection, schedule: Q01DX001 (ip), vehicle: carboxymethylcellulose (CMC) 102 % of control and 104 % of control

CC(C)=COC(=N)C(N)=O
inactive: [12] 100 % of control | [13] 97 % of control | [14] 115 % of control

Cn1c(=O)oc2ccccc2c1=O
inactive: dose: 100.0 mg/kg/injection, schedule: Q04DX003 (ip), vehicle: saline 98 % of control | dose: 200.0 mg/kg/injection, schedule: Q04DX003 (ip), vehicle: saline 97 % of control | dose: 400.0 mg/kg/injection, schedule: Q04DX003 (ip), vehicle: saline 109 % of control

O=S(=O)(Cl)C1c2ccccc2-c2ccccc21
inactive: dose: 100.0 mg/kg/injection, schedule: Q04DX002 (ip), vehicle: other 104 % of control | dose: 200.0 mg/kg/injection, schedule: Q04DX002 (ip), vehicle: other 96 % of control | dose: 400.0 mg/kg/injection, schedule: Q04DX002 (ip), vehicle: other 90 % of control

COc1ccc(C(C)=O)c(OC)c1
inactive: [20] 98 % of control | dose: 100.0 mg/kg/injection, schedule: Q01DX009 (ip), vehicle: saline 112 % of control | [21] 98 % of control | dose: 200.0 mg/kg/injection, schedule: Q01DX009 (ip), vehicle: saline 94 % of control | dose: 400.0 mg/kg/injection, schedule: Q01DX001 (ip), vehicle: saline 98 % of control | dose: 400.0 mg/kg/injection, schedule: Q01DX009 (ip), vehicle: saline 102 % of control

Cc1ccc(-n2ccnc2C)c(N=Cc2ccc(N(CCCl)CCCl)cc2C)c1
inactive: [17] 98 % of control | [18] 102 % of control | [19] 106 % of control
